Test results taken from PubChem BioAssay (NCI).
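How tested: cells in 96-well plates exposed to compound for 48 hours at five concentrations. The concentration for full growth arrest is given as TGI.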

Experiments:
Experiment in all cases: NCI tumour cell line growth inhibition, 48 h
[1] = system: SF-539 CNS
[2] = system: EKVX NSCLC
[3] = system: SNB-19 CNS
[4] = system: SK-OV-3 ovarian
[5] = system: HCT-15 colon
[6] = system: RPMI-8226 leukemia
[7] = system: SF-295 CNS
[8] = system: 786-0 renal
[9] = system: MDA-MB-231 breast
[10] = system: CCRF-CEM leukemia
[11] = system: HOP-92 NSCLC
[12] = system: HL-60(TB) leukemia
[13] = system: COLO 205 colon
[14] = system: MDA-MB-435
[15] = system: M14 melanoma
[16] = system: SW-620 colon
[17] = system: KM12 colon
[18] = system: OVCAR-4 ovarian
[19] = system: A549 NSCLC
[20] = system: UO-31 renal

Structure (SMILES) | TGI [1] [µM] | TGI [2] [µM] | TGI [3] [µM] | TGI [4] [µM] | TGI [5] [µM] | TGI [6] [µM] | TGI [7] [µM] | TGI [8] [µM] | TGI [9] [µM] | TGI [10] [µM] | TGI [11] [µM] | TGI [12] [µM] | TGI [13] [µM] | TGI [14] [µM] | TGI [15] [µM] | TGI [16] [µM] | TGI [17] [µM] | TGI [18] [µM] | TGI [19] [µM] | TGI [20] [µM]
Cc1ccc(/C=N/Nc2nncc3ccccc23)s1 | > 100 | > 100 | > 100 | > 100 | > 100 | > 100 | 98.2 | > 95.1 | > 82 | > 100 | > 100 | > 100 | > 100 | > 100 | > 100 | > 100 | > 100 | > 93.1 | > 100 | > 100
CC(C)(C)OC(=O)Nc1cc(-c2ccccc2)co1 | > 100 | > 100 | > 100 | > 100 | > 100 | > 100 | > 100 | > 100 | > 100 | > 100 | 86.8 | > 100 | > 100 | > 100 | > 100 | > 100 | > 100 | > 100 | > 100 | > 100
Cc1ccc(O)c(-c2csc(NCN3CCN(CNc4nc(-c5cc(C)ccc5O)cs4)CC3)n2)c1 | > 100 | > 100 | > 100 | > 100 | > 100 | > 100 | > 100 | > 100 | > 100 | > 100 | > 100 | > 100 | > 100 | > 100 | > 100 | > 100 | > 100 | > 100 | > 100 | > 100
O=c1[nH]c2ccc(CC(=S)N3CCN(c4ccccc4)CC3)cc2o1 | > 100 | > 100 | > 100 | > 100 | > 100 | > 100 | > 100 | > 100 | > 100 | > 100 | > 100 | > 100 | > 100 | > 100 | > 100 | > 100 | > 100 | > 100 | > 100 | > 100
CC(=O)c1c(-c2ccccc2)c(-c2ccc(OCCN(C)C)cc2)n2ccccc12 | 27.1 | 43.8 | 40.4 | 38.2 | 22.7 | 60.2 | 30.9 | 32.2 | 31 | 61.1 | 23.1 | 36.3 | 27 | 35.3 | 30.8 | 32 | 26.5 | > 100 | 50.7 | 32.1
O=C1CC(c2ccc[nH]2)=NN1c1ccccc1 | > 100 | > 100 | > 100 | > 100 | > 100 | > 100 | > 100 | > 100 | > 100 | > 100 | > 100 | > 100 | > 100 | > 100 | > 100 | > 100 | > 100 | > 100 | > 100 | > 100
COC1(OC)C2(Cl)C(Cl)=C(Cl)C1(Cl)C1COCC12 (stereo not given) | > 100 | > 100 | > 100 | > 100 | > 100 | > 100 | > 100 | > 100 | > 100 | > 100 | > 100 | > 100 | > 100 | > 69.4 | > 100 | > 100 | > 100 | > 100 | > 100 | > 100
